Results as given in US20150329512A1, “METHOD AND PHARMACEUTICAL COMPOSITION FOR TREATING LUNG CANCER” (National Dong Hua University, priority 2014, published 2015).

How the values were obtained:
[1] = test system: A549 cells; assay: Cell cycle analysis by flow cytometer (PI staining); format: cell-based, human; conditions: A549
Description: (§1) The results of Example 2 in cell viability hinted the effects of HCD, PG, and Dox on arresting cell cycle. In this example, the phase of cell cycle of A549 cells and Anti-Dox-A549 cells after the treatment listed in Table 1 was determined by flow cytometer. Briefly, 7×10^4 cells per well were to inoculated in 12-wells plate and incubated overnight at 37° C., 5% CO2. Then, cells were treated according to the treatment listed in Table 1 by indicated time period. After treatment, cells were harvested by trypsin and fixed with 70% ethanol at −20° C. for at least 3 hr. The cells were washed in cold PBS twice and then incubated with 1 ml (v/v) staining solution (20 μg/m1 propidium iodide (PI), 0.1% Triton X-100, 0.2 mg/ml Rnase) at 37° C. for 30 minutes. Lastly, cells were analyzed by flow cytometer (Cytomics™ FC500, Backman, Fullerton, Calif., USA). Data from 10,000 cells were collected for each experimental group.

[2] = test system: Anti-Dox-A549 cells; assay: as above; format: cell-based, human; conditions: Anti-Dox-A549
Description: as §1

[3] = test system: human lung cancer in lung of mice; assay: Mouse model bearing human lung cancer in lung (A549 or Anti-Dox-A549 cells injected); conditions: HCD 0.0318 or 1.272 mg/kg, PG 0.1615 or 0.646 mg/kg body weight, IT injection to the lung, monitored every five days for thirty days
Description: The animal experiments were approved by the National Dong-Hwa University Animal Ethics Committee and the experimental protocols were used according to the “Guide for the Care and Use of Laboratory Animals” of National Dong-Hwa University. 1×10^7 of A549 cells or Anti-Dox-A549 cells were suspended in PBS to prepare cell suspensions. On day 0, C57/BL6 mice (6-8 weeks old, n=6) were weighted and anesthetic using pentobarbital (5 mg/ml). Then, the mice were injected with the cell suspension (1×10^7 cells per mouse) into the lung by IT. The injection was repeated every 7 days for 21 days. Another group of mice were injected with 10% EtOH as comparative group according to the same procedure set forth above.
After the establishment of human lung cancer in the experimental mice, the mice were maintained for one more week and then treated with HCD (0.0318 or 1.272 mg/kg body weight, in 10% ETOH with PBS), PG (0.1615 or 0.646 mg/kg body weight, in 10% ETOH with PBS) or 10% EtOH by IT injection (intrathecal injection) to the lung. The body weight was monitored every five days for thirty days. After thirty days, the mice were sacrificed and the lungs were checked for marker of human lung adenocarcinoma by H&E and IHC staining. The livers, kidneys and spleens of the mice were also examined to confirm the cytotoxicity of HCD and PG and to see if there was any metastasis happened.

## CCCCCC1=C/C(=C/c2[nH]c(-c3ccc[nH]3)cc2OC)N=C1C [PG, Prodigiosin]
[1]; PG 2.5 μM, 6 hr
  G0/G1 (%): 46.3 ± 3.4 %
  G2/M (%): 32.3 ± 3.1 %
  S (%): 17.3 ± 1.2 %
  Sub G1 (%): 0.3 ± 0.1%
[1]; PG 2.5 μM, 12 hr
  G0/G1 (%): 62.7 ± 2.7%
  G2/M (%): 27.6 ± 0.7 %
  S (%): 6.6 ± 2.1 %
  Sub G1 (%): 0.4 ± 0.2%
[1]; PG 2.5 μM, 24 hr
  G0/G1 (%): 85 ± 0.6^ %
  G2/M (%): 11.6 ± 0.7%
  S (%): 1.9 ± 0.15 %
  Sub G1 (%): 0.26 ± 0.05%
[1]; PG 5 μM, 6 hr
  G0/G1 (%): 42.9 ± 2.1 %
  G2/M (%): 34.8 ± 0.9 %
  S (%): 18.2 ± 0.8 %
  Sub G1 (%): 0.26 ± 0.05%
[1]; PG 5 μM, 12 hr
  G0/G1 (%): 53.3 ± 1.2 %
  G2/M (%): 33.1 ± 0.2 %
  S (%): 10.0 ± 2.0 %
  Sub G1 (%): 0.36 ± 0.2%
[1]; PG 5 μM, 24 hr
  G0/G1 (%): 76.2 ± 8.1 %
  G2/M (%): 22.2 ± 1.1%
  S (%): 3.0 ± 0.75 %
  Sub G1 (%): 0.23 ± 0.05%
[1]; PG 10 μM, 6 hr
  G0/G1 (%): 43.8 ± 3.1 %
  G2/M (%): 27 ± 2.9%
  S (%): 18.8 ± 0.5 %
  Sub G1 (%): 0.33 ± 0.05%
[1]; PG 10 μM, 12 hr
  G0/G1 (%): 41.6 ± 1.3 %
  G2/M (%): 29.1 ± 3.0 %
  S (%): 16.6 ± 1.4%
  Sub G1 (%): 0.46 ± 0.1%
[1]; PG 10 μM, 24 hr
  G0/G1 (%): 43.8 ± 2.4 %
  G2/M (%): 26.5 ± 10.0%
  S (%): 9.1 ± 1.7 %
  Sub G1 (%): 0.9 ± 0.7%
[2]; PG 2.5 μM, 6 hr
  G0/G1 (%): 58.9 ± 7.1%
  G2/M (%): 23.5 ± 1.9%
  S (%): 18.5 ± 0.5%
  Sub G1 (%): 2.2 ± 0.1 %
[2]; PG 2.5 μM, 12 hr
  G0/G1 (%): 65.3 ± 2.9%
  G2/M (%): 17.2 ± 6.5%
  S (%): 13.8 ± 4.7%
  Sub G1 (%): 1.6 ± 1.2%
[2]; PG 2.5 μM, 24 hr
  G0/G1 (%): 81.8 ± 5.7%
  G2/M (%): 8.8 ± 1.4%
  S (%): 3.1 ± 1.3 %
  Sub G1 (%): 0.9 ± 0.3%
[2]; PG 5 μM, 6 hr
  G0/G1 (%): 56 ± 1.3%
  G2/M (%): 23.6 ± 2.3%
  S (%): 18.7 ± 0.8%
  Sub G1 (%): 1.9 ± 0.3%
[2]; PG 5 μM, 12 hr
  G0/G1 (%): 62.7 ± 4.7 %
  G2/M (%): 19.2 ± 6.9%
  S (%): 16.8 ± 5.5%
  Sub G1 (%): 2.9 ± 1.0%
[2]; PG 5 μM, 24 hr
  G0/G1 (%): 76.2 ± 6.0%
  G2/M (%): 13.8 ± 1.7%
  S (%): 3.7 ± 2.0 %
  Sub G1 (%): 4.3 ± 5.3%
[2]; PG 10 μM, 6 hr
  G0/G1 (%): 54.6 ± 3.0 %
  G2/M (%): 19.8 ± 6.6%
  S (%): 22.9 ± 3.4 %
  Sub G1 (%): 2 ± 0.6%
[2]; PG 10 μM, 12 hr
  G0/G1 (%): 53.2 ± 2.5 %
  G2/M (%): 22.8 ± 6.4%
  S (%): 21.4 ± 3.7%
  Sub G1 (%): 1.8 ± 0.2%
[2]; PG 10 μM, 24 hr
  G0/G1 (%): 44.3 ± 7.7 %
  G2/M (%): 27.9 ± 1.9 %
  S (%): 11.7 ± 3.7%
  Sub G1 (%): 6.9 ± 4.3%
[3]
  body weight of the experimental mice: did not show significantly change
